Key:
Assay in all cases: radiometric filter-binding kinase assay
RIPK2 (human) = RIPK2 (human) (UniProt O43353)
MYLK (human) = MYLK (human) (UniProt Q15746)
MAPKAPK3 (human) = MAPKAPK3 (human) (UniProt Q16644)
BRSK2 (human) = BRSK2 (human) (UniProt Q8IWQ3)
CSNK1D (human) = CSNK1D (human) (UniProt P48730)
CLK2 (human) = CLK2 (human) (UniProt P49760)
PIM1 (human) = PIM1 (human) (UniProt P11309)
MAPK12 (human) = MAPK12 (human) (UniProt P53778)
MAP2K2 (human) = MAP2K2 (human) (UniProt P36507)
PIM3 (human) = PIM3 (human) (UniProt Q86V86)
MARK4 (human) = MARK4 (human) (UniProt Q96L34)
FLT1 (human) = FLT1 (human) (UniProt P17948)
RPS6KA3 KD1 KD2 (human) = RPS6KA3 KD1 KD2 (human) (UniProt P51812)
TTK (human) = TTK (human) (UniProt P33981)
JAK2 JH1 JH2 (human) = JAK2 JH1 JH2 (human) (UniProt O60674)
MAPK8 (human) = MAPK8 (human) (UniProt P45983)
EPHB2 (human) = EPHB2 (human) (UniProt P29323)
MELK (human) = MELK (human) (UniProt Q14680)
[1] = system: RPS6KB1 (human), P23443 [T412E]
PLK1 (human) = PLK1 (human) (UniProt P53350)
Sequence of PLK1 (human) (P53350 whole entry, looked up): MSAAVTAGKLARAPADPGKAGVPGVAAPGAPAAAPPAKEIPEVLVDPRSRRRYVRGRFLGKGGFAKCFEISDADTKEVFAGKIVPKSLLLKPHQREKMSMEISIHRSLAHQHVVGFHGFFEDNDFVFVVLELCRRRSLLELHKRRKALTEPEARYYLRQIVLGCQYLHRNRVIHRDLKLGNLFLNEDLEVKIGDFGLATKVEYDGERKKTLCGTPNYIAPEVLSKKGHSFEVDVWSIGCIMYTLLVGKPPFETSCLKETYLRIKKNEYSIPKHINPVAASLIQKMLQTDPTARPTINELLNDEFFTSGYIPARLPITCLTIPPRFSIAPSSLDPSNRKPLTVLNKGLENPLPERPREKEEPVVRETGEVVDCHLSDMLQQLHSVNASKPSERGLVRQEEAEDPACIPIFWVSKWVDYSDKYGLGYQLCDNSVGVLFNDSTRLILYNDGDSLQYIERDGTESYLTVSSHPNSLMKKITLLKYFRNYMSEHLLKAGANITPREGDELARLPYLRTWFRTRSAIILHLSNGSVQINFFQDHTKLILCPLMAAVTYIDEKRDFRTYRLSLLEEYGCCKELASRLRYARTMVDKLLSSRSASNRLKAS

MAP3K7 TAB1 (human) = MAP3K7 TAB1 (human) (UniProt Q15750+O43318)
SYK (human) = SYK (human) (UniProt P43405)
AURKA (human) = AURKA (human) (UniProt O14965)
INSR (human) = INSR (human) (UniProt P06213)
Sequence of INSR (human) (P06213 whole entry, looked up): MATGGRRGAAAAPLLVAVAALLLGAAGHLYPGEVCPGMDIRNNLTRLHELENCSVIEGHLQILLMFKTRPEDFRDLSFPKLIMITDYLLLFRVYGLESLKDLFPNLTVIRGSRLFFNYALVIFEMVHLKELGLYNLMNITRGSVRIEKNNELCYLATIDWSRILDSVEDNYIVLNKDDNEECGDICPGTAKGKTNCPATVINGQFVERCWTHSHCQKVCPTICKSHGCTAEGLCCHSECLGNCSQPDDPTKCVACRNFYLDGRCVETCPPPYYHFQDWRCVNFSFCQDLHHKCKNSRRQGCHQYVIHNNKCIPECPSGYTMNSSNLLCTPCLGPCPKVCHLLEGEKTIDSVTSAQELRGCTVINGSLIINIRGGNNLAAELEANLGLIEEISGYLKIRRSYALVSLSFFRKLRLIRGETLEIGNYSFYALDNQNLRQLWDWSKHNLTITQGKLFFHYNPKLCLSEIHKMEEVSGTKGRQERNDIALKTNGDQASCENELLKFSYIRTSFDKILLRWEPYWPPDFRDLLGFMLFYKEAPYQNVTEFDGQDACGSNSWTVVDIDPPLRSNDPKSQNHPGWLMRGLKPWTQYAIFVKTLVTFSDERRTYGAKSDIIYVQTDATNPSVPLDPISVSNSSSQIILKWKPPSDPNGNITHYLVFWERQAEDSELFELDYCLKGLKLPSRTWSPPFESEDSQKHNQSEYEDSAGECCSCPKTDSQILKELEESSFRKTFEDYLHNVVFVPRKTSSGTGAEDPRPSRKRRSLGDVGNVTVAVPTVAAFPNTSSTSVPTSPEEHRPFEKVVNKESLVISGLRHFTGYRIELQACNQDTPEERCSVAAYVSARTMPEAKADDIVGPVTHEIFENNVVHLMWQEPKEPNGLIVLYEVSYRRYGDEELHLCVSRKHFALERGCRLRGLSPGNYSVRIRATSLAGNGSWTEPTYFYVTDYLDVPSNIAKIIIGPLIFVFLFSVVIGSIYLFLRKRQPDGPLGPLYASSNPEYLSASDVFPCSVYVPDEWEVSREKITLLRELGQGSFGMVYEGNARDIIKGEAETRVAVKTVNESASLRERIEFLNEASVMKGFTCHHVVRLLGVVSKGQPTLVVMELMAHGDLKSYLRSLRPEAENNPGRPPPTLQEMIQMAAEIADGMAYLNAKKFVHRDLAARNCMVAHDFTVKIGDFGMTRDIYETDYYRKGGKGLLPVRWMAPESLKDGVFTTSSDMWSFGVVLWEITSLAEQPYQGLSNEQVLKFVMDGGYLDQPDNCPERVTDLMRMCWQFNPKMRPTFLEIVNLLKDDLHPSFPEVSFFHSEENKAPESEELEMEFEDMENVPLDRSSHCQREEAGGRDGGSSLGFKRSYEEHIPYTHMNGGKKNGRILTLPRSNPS

[2] = system: SGK1 (human), O00141 [S422D]
EPHA4 (human) = EPHA4 (human) (UniProt P54764)
CDK2 CCNA2 (human) = CDK2 CCNA2 (human) (UniProt P20248+P24941)
TBK1 (human) = TBK1 (human) (UniProt Q9UHD2)
BRSK1 (human) = BRSK1 (human) (UniProt Q8TDC3)
FGFR1 (human) = FGFR1 (human) (UniProt P11362)
[3] = system: PAK2 (human), Q13177 [T402E]
MAP3K11 (human) = MAP3K11 (human) (UniProt Q16584)
IRAK4 (human) = IRAK4 (human) (UniProt Q9NWZ3)
INSRR (human) = INSRR (human) (UniProt P14616)
CSK (human) = CSK (human) (UniProt P41240)

Sequence of MYLK (human) (Q15746 whole entry, looked up): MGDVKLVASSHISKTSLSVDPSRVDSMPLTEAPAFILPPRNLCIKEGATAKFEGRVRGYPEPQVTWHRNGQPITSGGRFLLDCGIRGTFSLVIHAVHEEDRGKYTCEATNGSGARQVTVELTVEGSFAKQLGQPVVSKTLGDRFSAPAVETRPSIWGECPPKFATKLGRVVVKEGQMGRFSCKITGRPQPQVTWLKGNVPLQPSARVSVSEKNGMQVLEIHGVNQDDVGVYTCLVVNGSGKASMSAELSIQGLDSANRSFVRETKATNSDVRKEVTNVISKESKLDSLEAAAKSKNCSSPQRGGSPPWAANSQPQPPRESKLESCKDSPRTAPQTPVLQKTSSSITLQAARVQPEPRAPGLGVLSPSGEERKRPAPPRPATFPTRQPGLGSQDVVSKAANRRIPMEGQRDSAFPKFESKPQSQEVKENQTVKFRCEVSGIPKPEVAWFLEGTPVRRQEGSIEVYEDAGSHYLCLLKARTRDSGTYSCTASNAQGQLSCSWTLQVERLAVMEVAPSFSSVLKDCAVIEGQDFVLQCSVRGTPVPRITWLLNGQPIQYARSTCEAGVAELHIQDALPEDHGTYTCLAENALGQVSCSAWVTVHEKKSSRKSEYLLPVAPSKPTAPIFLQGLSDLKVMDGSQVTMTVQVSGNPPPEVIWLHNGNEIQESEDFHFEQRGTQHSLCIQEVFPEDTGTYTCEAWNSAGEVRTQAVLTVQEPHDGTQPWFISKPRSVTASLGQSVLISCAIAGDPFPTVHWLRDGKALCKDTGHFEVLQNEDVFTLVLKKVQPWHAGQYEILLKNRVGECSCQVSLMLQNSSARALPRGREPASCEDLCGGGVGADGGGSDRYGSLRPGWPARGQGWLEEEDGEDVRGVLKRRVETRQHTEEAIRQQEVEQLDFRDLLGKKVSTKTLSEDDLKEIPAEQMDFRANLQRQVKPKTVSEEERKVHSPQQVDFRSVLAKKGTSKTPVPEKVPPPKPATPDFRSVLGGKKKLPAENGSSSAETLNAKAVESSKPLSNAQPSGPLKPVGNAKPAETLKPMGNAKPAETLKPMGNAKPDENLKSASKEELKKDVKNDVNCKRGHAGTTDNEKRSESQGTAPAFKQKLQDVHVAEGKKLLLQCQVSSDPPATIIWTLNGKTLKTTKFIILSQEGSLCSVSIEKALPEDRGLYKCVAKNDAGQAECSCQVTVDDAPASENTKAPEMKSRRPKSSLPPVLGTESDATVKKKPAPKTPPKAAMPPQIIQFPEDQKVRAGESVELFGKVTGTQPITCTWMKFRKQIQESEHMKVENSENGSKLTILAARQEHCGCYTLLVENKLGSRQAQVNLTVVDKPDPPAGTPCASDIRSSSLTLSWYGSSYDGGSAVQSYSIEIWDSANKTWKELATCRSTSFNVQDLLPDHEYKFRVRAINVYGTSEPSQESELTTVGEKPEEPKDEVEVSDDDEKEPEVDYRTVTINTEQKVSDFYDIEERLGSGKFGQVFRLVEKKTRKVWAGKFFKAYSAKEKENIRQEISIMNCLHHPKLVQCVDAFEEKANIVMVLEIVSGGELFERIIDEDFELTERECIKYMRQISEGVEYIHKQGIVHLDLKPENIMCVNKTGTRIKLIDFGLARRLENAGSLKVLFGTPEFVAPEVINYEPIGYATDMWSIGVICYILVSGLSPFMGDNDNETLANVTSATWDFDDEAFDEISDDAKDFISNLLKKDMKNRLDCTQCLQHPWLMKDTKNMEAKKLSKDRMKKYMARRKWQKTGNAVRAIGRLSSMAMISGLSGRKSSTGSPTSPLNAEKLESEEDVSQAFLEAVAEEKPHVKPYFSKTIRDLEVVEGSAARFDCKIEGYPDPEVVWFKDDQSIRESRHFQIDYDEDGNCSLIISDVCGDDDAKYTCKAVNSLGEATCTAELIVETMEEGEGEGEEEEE
Sequence of BRSK2 (human) (Q8IWQ3 whole entry, looked up): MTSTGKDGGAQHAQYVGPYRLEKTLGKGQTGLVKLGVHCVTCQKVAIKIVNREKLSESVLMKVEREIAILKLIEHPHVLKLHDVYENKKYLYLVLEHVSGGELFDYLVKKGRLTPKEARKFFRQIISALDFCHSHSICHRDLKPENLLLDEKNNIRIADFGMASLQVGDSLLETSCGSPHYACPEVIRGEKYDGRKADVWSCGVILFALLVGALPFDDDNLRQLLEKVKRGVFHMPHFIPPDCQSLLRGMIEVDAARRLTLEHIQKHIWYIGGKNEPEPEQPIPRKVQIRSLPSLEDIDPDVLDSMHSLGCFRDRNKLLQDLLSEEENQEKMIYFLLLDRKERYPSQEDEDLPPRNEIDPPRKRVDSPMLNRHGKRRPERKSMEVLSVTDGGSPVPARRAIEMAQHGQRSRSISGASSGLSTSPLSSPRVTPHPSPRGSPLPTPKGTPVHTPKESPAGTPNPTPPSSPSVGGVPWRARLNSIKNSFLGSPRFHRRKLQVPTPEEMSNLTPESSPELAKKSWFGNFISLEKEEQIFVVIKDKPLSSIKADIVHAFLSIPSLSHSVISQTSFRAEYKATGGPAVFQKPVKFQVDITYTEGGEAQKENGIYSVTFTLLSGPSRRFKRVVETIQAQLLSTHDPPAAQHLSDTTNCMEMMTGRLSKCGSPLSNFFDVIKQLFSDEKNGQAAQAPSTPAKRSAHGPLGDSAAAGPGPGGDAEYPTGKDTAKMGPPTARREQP
Sequence of MAPKAPK3 (human) (Q16644 whole entry, looked up): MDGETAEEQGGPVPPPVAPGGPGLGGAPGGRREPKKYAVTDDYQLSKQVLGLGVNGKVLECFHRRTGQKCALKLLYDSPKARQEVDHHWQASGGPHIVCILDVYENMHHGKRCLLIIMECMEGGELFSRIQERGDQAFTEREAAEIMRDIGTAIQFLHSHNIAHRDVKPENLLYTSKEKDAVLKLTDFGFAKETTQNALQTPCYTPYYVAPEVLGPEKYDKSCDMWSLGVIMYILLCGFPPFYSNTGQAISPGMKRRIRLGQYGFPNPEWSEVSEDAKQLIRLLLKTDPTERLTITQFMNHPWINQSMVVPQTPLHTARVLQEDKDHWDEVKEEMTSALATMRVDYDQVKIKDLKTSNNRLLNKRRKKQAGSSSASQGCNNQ

Cc1ccc(Sc2cnc(Nc3cccc(Br)n3)s2)cc1C(=O)N1CCN(C(=O)CN)CC1
residual activity (RIPK2 (human); compound 0.1 µM): 20% | residual activity (RIPK2 (human); compound 1.0 µM): 17% | residual activity (RIPK2 (human); compound 10.0 µM): 8% | residual activity (MYLK (human); compound 0.1 µM): 51% | residual activity (MYLK (human); compound 1.0 µM): 43% | residual activity (MYLK (human); compound 10.0 µM): 5% | residual activity (MAPKAPK3 (human); compound 0.1 µM): 91% | residual activity (MAPKAPK3 (human); compound 1.0 µM): 77% | residual activity (MAPKAPK3 (human); compound 10.0 µM): 85% | residual activity (BRSK2 (human); compound 0.1 µM): 88% | residual activity (BRSK2 (human); compound 1.0 µM): 80% | residual activity (BRSK2 (human); compound 10.0 µM): 40% | residual activity (CSNK1D (human); compound 0.1 µM): 99% | residual activity (CSNK1D (human); compound 1.0 µM): 87% | residual activity (CSNK1D (human); compound 10.0 µM): 68% | residual activity (CLK2 (human); compound 0.1 µM): 3% | residual activity (CLK2 (human); compound 1.0 µM): 3% | residual activity (CLK2 (human); compound 10.0 µM): 1% | residual activity (PIM1 (human); compound 0.1 µM): 54% | residual activity (PIM1 (human); compound 1.0 µM): 49% | residual activity (PIM1 (human); compound 10.0 µM): 11% | residual activity (MAPK12 (human); compound 0.1 µM): 77% | residual activity (MAPK12 (human); compound 1.0 µM): 80% | residual activity (MAPK12 (human); compound 10.0 µM): 45% | residual activity (MAP2K2 (human); compound 0.1 µM): 86% | residual activity (MAP2K2 (human); compound 1.0 µM): 77% | residual activity (PIM3 (human); compound 0.1 µM): 53% | residual activity (PIM3 (human); compound 1.0 µM): 72% | residual activity (PIM3 (human); compound 10.0 µM): 21% | residual activity (MARK4 (human); compound 0.1 µM): 101% | residual activity (MARK4 (human); compound 1.0 µM): 118% | residual activity (MARK4 (human); compound 10.0 µM): 43% | residual activity (FLT1 (human); compound 0.1 µM): 56% | residual activity (FLT1 (human); compound 1.0 µM): 52% | residual activity (FLT1 (human); compound 10.0 µM): 19% | residual activity (RPS6KA3 KD1 KD2 (human); compound 0.1 µM): 67% | residual activity (RPS6KA3 KD1 KD2 (human); compound 1.0 µM): 64% | residual activity (RPS6KA3 KD1 KD2 (human); compound 10.0 µM): 18% | residual activity (TTK (human); compound 0.1 µM): 75% | residual activity (TTK (human); compound 1.0 µM): 73% | residual activity (TTK (human); compound 10.0 µM): 42% | residual activity (JAK2 JH1 JH2 (human); compound 0.1 µM): 84% | residual activity (JAK2 JH1 JH2 (human); compound 1.0 µM): 80% | residual activity (JAK2 JH1 JH2 (human); compound 10.0 µM): 30% | residual activity (MAPK8 (human); compound 0.1 µM): 98% | residual activity (MAPK8 (human); compound 1.0 µM): 99% | residual activity (MAPK8 (human); compound 10.0 µM): 53% | residual activity (EPHB2 (human); compound 0.1 µM): 11% | residual activity (EPHB2 (human); compound 1.0 µM): 4% | residual activity (EPHB2 (human); compound 10.0 µM): 4% | residual activity (MELK (human); compound 0.1 µM): 42% | residual activity (MELK (human); compound 1.0 µM): 15% | residual activity (MELK (human); compound 10.0 µM): 5% | residual activity ([1]; compound 0.1 µM): 95% | residual activity ([1]; compound 1.0 µM): 92% | residual activity ([1]; compound 10.0 µM): 11% | residual activity (PLK1 (human); compound 0.1 µM): 97% | residual activity (PLK1 (human); compound 1.0 µM): 85% | residual activity (PLK1 (human); compound 10.0 µM): 114% | residual activity (MAP3K7 TAB1 (human); compound 0.1 µM): 107% | residual activity (MAP3K7 TAB1 (human); compound 1.0 µM): 84% | residual activity (MAP3K7 TAB1 (human); compound 10.0 µM): 27% | residual activity (SYK (human); compound 0.1 µM): 82% | residual activity (SYK (human); compound 1.0 µM): 64% | residual activity (SYK (human); compound 10.0 µM): 28% | residual activity (AURKA (human); compound 0.1 µM): 3% | residual activity (AURKA (human); compound 1.0 µM): 3% | residual activity (AURKA (human); compound 10.0 µM): 0% | residual activity (INSR (human); compound 0.1 µM): 19% | residual activity (INSR (human); compound 1.0 µM): 14% | residual activity (INSR (human); compound 10.0 µM): 1% | residual activity ([2]; compound 0.1 µM): 89% | residual activity ([2]; compound 1.0 µM): 90% | residual activity ([2]; compound 10.0 µM): 41% | residual activity (EPHA4 (human); compound 0.1 µM): 22% | residual activity (EPHA4 (human); compound 1.0 µM): 29% | residual activity (EPHA4 (human); compound 10.0 µM): 0% | residual activity (CDK2 CCNA2 (human); compound 0.1 µM): 35% | residual activity (CDK2 CCNA2 (human); compound 1.0 µM): 15% | residual activity (CDK2 CCNA2 (human); compound 10.0 µM): 3% | residual activity (TBK1 (human); compound 0.1 µM): 87% | residual activity (TBK1 (human); compound 1.0 µM): 78% | residual activity (TBK1 (human); compound 10.0 µM): 93% | residual activity (BRSK1 (human); compound 0.1 µM): 82% | residual activity (BRSK1 (human); compound 1.0 µM): 81% | residual activity (BRSK1 (human); compound 10.0 µM): 41% | residual activity (FGFR1 (human); compound 0.1 µM): 47% | residual activity (FGFR1 (human); compound 1.0 µM): 43% | residual activity (FGFR1 (human); compound 10.0 µM): 11% | residual activity ([3]; compound 0.1 µM): 44% | residual activity ([3]; compound 1.0 µM): 44% | residual activity ([3]; compound 10.0 µM): 16% | residual activity (MAP3K11 (human); compound 0.1 µM): 84% | residual activity (MAP3K11 (human); compound 1.0 µM): 77% | residual activity (MAP3K11 (human); compound 10.0 µM): 51% | residual activity (IRAK4 (human); compound 0.1 µM): 5% | residual activity (IRAK4 (human); compound 1.0 µM): 3% | residual activity (IRAK4 (human); compound 10.0 µM): 2% | residual activity (INSRR (human); compound 0.1 µM): 69% | residual activity (INSRR (human); compound 1.0 µM): 80% | residual activity (INSRR (human); compound 10.0 µM): 52% | residual activity (CSK (human); compound 0.1 µM): 103% | residual activity (CSK (human); compound 1.0 µM): 88% | residual activity (CSK (human); compound 10.0 µM): 9%

Reference: the kinase profiling compilation of Christmann-Franck et al. (2016)
